Experiments:
[1] = tested on: NIH3T3 cells expressing AcGFP-PDE5A fusions; assay: FACS analysis of C-terminal PDE5A mutants (AcGFP-PDE5A fusions), Sildenafil vs vehicle; type: cell-based, mouse; details: for Mean Fluorescence intensity: NIH3T3; for Stabilization ratio: Sildenafil 10 μM vs vehicle alone; for basal expression in the absence of ligand (in words): extended PDE5A variants, NIH3T3, no Sildenafil
Procedure: (§1) The NIH3T3 cell line was cultured in DMEM supplemented with 10% heat-inactivated donor bovine serum (Invitrogen), 2 mM glutamine, 100 U/ml penicillin and 100 μg/ml streptomycin.
(§2) The ΦNX ecotropic packaging cell line was transfected using standard Lipofectamine 2000 protocols. Viral supernatants were harvested 48 hours, post transfection, filtered and concentrated 10-fold using Amicon Ultra centrifugal filter device with a 100kDa cutoff. NIH 3T3 cells were incubated with concentrated retroviral supernatants supplemented with 4 μg/ml polybrene for 4 hours at 37° C. Cells were washed once with PBS and cultured in growth media for 24-36 hours to allow for viral integration.
(§3) The transduced NIH3T3 cells were subjected to analysis using fluorescence-activated cell sorting (FACS) to screen the libraries of PDE5A mutants. 24 hours prior to analysis, transduced NIH3T3 cells were plated at 1×10^5 cells per well of a 12-well plate. Cells were removed from the plate using PBS and 2 mM EDTA, washed once with PBS, and resuspended in 200 μL, PBS. FACS analysis was performed on instruments at the Stanford Shared FACS Facility with 10,000 events represented.
(§4) To identify destabilizing domains that are responsive to the PDE5A ligand, Sildenafil, a cell-based screening assay was employed in which the fluorescence of green fluorescent protein derived from Aequorea coerulescens (AcGFP) served as an indicator of PDE5A stability. A library based on the PDE5A catalytic domain sequences was generated using error prone PCR and then cloned in-frame in front of AcGFP. A Moloney murine leukemia retroviral expression was used to stably integrate this library of PDE5A-AcGFP fusions into NIH-3T3 fibroblasts, and the transduced cells were subjected to three rounds of sorting using flow cytometry. In the first round, cells were treated with 10 μM of PDE5A ligand, Sildenafil for 16-24 before analysis. Fluorescent cells were collected and further cultured in the absence of ligand for 60 hours.
(§5) A library of AcGFP-PDE5A fusions i.e., C-terminal PDE5A mutants was screened using the cell-based screening assay described previously to identify C-terminal destabilizing domains. […] Identified candidates were subjected to further characterization by FACS. Cells were split into two treatment groups and incubated with either Sildenafil (10 μM) or vehicle alone for 24 hours. Cells that were mock transduced or transduced with the wild-type PDE5A construct were also included in the analysis. The stabilization ratio was calculated as the fold change in GFP intensity of the AcGFP-PDE5A construct in Sildenafil treated sample compared to vehicle alone treated sample. The results are presented in Table 2 where the C terminal PDE5A mutants are denoted as PDE5AC.
Residue D764 was identified as a mutational hotspot from sequence analysis. PDE5AC (#41) was engineered with either D764N or D764G mutation via site-directed mutagenesis. PDE5AC (#41) +D764N comprises the amino acid sequence of SEQ ID NO. 53 (encoded by SEQ ID NO. 54) and PDE5AC (#41) +D764G comprises the amino acid sequence of SEQ ID NO. 55 (encoded by SEQ ID NO. 56). AcGFP-PDE5A variants were evaluated for Sildenafil dependent stabilization via FACS as described previously. Results from FACS analysis are presented in Table 4 where the C terminal PDE5A mutants are denoted as PDE5AC. The stabilization ratio was calculated as the fold change in GFP intensity of the AcGFP-PDE5A construct in Sildenafil treated sample compared to vehicle alone treated sample.
Extended versions of human PDE5A that included residues in addition to catalytic domain (residues 535-860 of SEQ ID NO. 1) with Q589R polymorphism (SEQ ID NO. 11) were evaluated for use as C-terminal destabilizing domains. Three extended PDE5A sequences were tested that consisted of residues 535-875 of SEQ ID NO. 1 with Q589R polymorphism (SEQ ID NO. 13); residues 466-875 of SEQ ID NO. 1 with Q589R polymorphism (SEQ ID NO. 15); or residues 420-875 of SEQ ID NO. […]

PDE5A-AcGFP fusions = assay: FACS analysis of N-terminal PDE5A mutants (PDE5A-AcGFP fusions), Sildenafil vs vehicle; type: cell-based, mouse; details: 24 hours; for Stabilization ratio: Sildenafil 20 μM vs vehicle alone; for Mean Fluorescence Intensity (MFI) Sildenafil (20 μM) / Mean Fluorescence Intensity (MFI) Vehicle control: NIH3T3; for Mean Fluorescence Intensity (MFI) Vehicle control: vehicle alone
Procedure: as §1, §2, §3, §4
as §5, with “PDE5A-AcGFP” for “AcGFP-PDE5A”, “N-terminal” for “C-terminal”, “mutants,” for “mutants”, “(20” for “(10”, “The results are presented in Table 6 where the N terminal PDE5A mutants are denoted as PDE5AN. The” for “The”, “sample.” for “sample. The results are presented in Table 2 where the C terminal PDE5A mutants are denoted as PDE5AC.”

[2] = Table 5 (extended variants), Sildenafil (10 μM) +
[3] = Table 5 (extended variants), Sildenafil (10 μM) −
[4] = Table 2, Sildenafil (10 μM) +, 24 hours
[5] = Table 2, Sildenafil (10 μM) −, vehicle alone, 24 hours
[6] = Table 2, fold change in GFP intensity, 24 hours
[7] = Table 4 (D764 mutations), Sildenafil (10 μM) +
[8] = Table 4 (D764 mutations), Sildenafil (10 μM) −

Row | Substance | Mean Fluorescence intensity [1, 2] | Mean Fluorescence intensity [1, 3] | Stabilization ratio ([1]; Table 5) | basal expression in the absence of ligand (in words) [1] | Stabilization ratio (PDE5A-AcGFP fusions) | Mean Fluorescence Intensity (MFI) Sildenafil (20 μM) (PDE5A-AcGFP fusions) | Mean Fluorescence Intensity (MFI) Vehicle control (PDE5A-AcGFP fusions) | also measured
1 | PDE5AC 420-875 (Q589R): AcGFP fused to residues 420-875 of SEQ ID NO. 1 with Q589R polymorphism, SEQ ID NO. 17 | 572 | 620 | 0.9 | low basal expression |  |  |  | 
2 | PDE5AC 466-875 (Q589R): AcGFP fused to residues 466-875 of SEQ ID NO. 1 with Q589R polymorphism, SEQ ID NO. 15 | 888 | 819 | 1.1 | low basal expression |  |  |  | 
3 | PDE5AC 535-860 (Q589R): AcGFP fused to PDE5A catalytic domain residues 535-860 with Q589R polymorphism, SEQ ID NO. 11 [reference compound] | 8557 | 8431 | 1.0 | high basal expression |  |  |  | 
4 | PDE5AC 535-875 (Q589R): AcGFP fused to residues 535-875 of SEQ ID NO. 1 with Q589R polymorphism, SEQ ID NO. 13 | 6462 | 6761 | 1.0 | high basal expression |  |  |  | 
5 | PDE5AC (#8): AcGFP fused to C-terminal DD 535-860 of PDE5A (F561L, F564L, Q589R, D724N, S766F, T802P), SEQ ID NO. 34 |  |  |  |  |  |  |  | Mean Fluorescence intensity [1, 4]: 3310; Mean Fluorescence intensity [1, 5]: 1066; Stabilization ratio [1, 6]: 3.1
6 | PDE5AC (#40): AcGFP fused to C-terminal DD 535-860 of PDE5A (Q589R, D764G), SEQ ID NO. 26 |  |  |  |  |  |  |  | Mean Fluorescence intensity [1, 4]: 5923; Mean Fluorescence intensity [1, 5]: 1255; Stabilization ratio [1, 6]: 4.7; Mean Fluorescence intensity [1, 7]: 4229; Mean Fluorescence intensity [1, 8]: 917; Stabilization ratio ([1]; Table 4): 4.6
7 | PDE5AC (#41) + D764G: PDE5AC (#41) engineered with D764G mutation, SEQ ID NO. 55 |  |  |  |  |  |  |  | Mean Fluorescence intensity [1, 7]: 730; Mean Fluorescence intensity [1, 8]: 709; Stabilization ratio ([1]; Table 4): 1.0
8 | PDE5AC (#41) + D764N: PDE5AC (#41) engineered with D764N mutation, SEQ ID NO. 53 |  |  |  |  |  |  |  | Mean Fluorescence intensity [1, 7]: 1007; Mean Fluorescence intensity [1, 8]: 684; Stabilization ratio ([1]; Table 4): 1.5
9 | PDE5AN (#19): N-terminal DD 535-860 of PDE5A (Q589R, I599V, T711A, F744L, L746S, L804P), SEQ ID NO. 31, fused to AcGFP |  |  |  |  | 2.86 | 4297 | 1502 | 
10 | PDE5AN (#30): N-terminal DD 535-860 of PDE5A (Q589R, L675P, F755L), SEQ ID NO. 69, fused to AcGFP |  |  |  |  | 4.46 | 4713 | 1056 | 
11 | PDE5AN (#35): N-terminal DD 535-860 of PDE5A (S560G, V585A, N587S, Q589R, K591E, S663P, F840S), SEQ ID NO. 32, fused to AcGFP |  |  |  |  | 2.50 | 3684 | 1476 | 
12 | PDE5AN (#55): N-terminal DD 535-860 of PDE5A (Q589R, I648V, M816T), SEQ ID NO. 33, fused to AcGFP |  |  |  |  | 2.87 | 3602 | 1257 | 
13 | PDE5AN (#57): N-terminal DD 535-860 of PDE5A (N587S, Q589R, K608E, N661S, D764V), SEQ ID NO. 68, fused to AcGFP |  |  |  |  | 7.6 | 5851 | 770 | 

Source: patent US11891634B2, “PDE5A destabilizing domains” (The Board of Trustees of the Leland Stanford Junior …, priority 2017, dated 2024)
